Laboratory results as given in patent publication US9271991B2, “Trimegestone (TMG) for treatment of preterm birth” (Dignity Health, priority 2010, dated 2016).
Entries after “also recorded” stand apart in the source; their conditions may differ.

Key:
[1] = test system: mineralocorticoid receptors (MR); details: cited from earlier work
[2] = test system: MMP expression (MMP-1, MMP-3) in cultured stromal cells; details: cited from earlier work
[3] = molecular target: T1, progesterone receptor (PR) (Homo sapiens, UniProt P06401); details: cited from earlier work
T1 sequence (P06401 1-933): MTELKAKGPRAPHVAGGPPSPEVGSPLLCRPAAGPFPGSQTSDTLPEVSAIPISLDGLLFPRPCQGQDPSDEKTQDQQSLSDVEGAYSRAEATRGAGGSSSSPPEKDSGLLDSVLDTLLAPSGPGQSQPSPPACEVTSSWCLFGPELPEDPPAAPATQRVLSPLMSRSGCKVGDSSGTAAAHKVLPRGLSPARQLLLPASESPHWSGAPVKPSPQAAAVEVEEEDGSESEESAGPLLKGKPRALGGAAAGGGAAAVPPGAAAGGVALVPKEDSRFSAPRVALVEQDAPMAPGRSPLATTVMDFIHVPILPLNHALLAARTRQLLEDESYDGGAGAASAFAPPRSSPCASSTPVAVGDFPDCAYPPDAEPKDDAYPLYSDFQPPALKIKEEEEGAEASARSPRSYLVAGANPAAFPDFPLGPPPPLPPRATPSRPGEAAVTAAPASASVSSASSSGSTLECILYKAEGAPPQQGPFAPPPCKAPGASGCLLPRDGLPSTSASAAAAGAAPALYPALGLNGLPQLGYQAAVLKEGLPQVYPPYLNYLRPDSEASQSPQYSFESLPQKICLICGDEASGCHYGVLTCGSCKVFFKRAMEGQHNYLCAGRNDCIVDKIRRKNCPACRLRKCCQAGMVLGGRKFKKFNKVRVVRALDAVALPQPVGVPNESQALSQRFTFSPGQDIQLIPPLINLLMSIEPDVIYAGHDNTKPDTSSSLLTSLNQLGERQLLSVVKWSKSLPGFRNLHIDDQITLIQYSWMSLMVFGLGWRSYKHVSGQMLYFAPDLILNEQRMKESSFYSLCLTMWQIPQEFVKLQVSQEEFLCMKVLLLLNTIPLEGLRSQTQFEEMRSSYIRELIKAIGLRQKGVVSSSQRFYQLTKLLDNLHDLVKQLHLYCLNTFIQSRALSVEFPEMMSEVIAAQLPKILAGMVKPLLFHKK

[4] = test system: pregnant rats (term delivery); experiment: Delay of term delivery in pregnant rats; format: in vivo, Sprague-Dawley rats
From the text: Timed-pregnant Sprague-Dawley rats (200-250 g) from Charles-River Laboratories (Wilmington, Mass., USA) were delivered to our animal care facilities on day 15 of gestation (day 1 being the day when a sperm plug was observed). The animals were housed separately, with free access to food and water and maintained on a constant 12-hour light-dark cycle. Control pregnant rats were spontaneously delivering on day 22 of gestation. The animals were randomly allocated into groups and sacrificed by carbon dioxide inhalation on day 5 postpartum or on day 25 of gestation in the groups with delayed delivery.
Pregnant rats (N=6 per group) were treated, when not otherwise mentioned, from day 20 of gestation until delivery. Single daily treatments were performed at 8 am and twice a day treatments at 8 am and 8 pm. Treatment began daily on day 20 of gestation with vehicles or: a) Topical P4 at various doses (4-30 mg/day, vehicle (v)=fish oil) or topical TMG ([…], v=fish oil; b) Subcutaneous (s.c.) P4 (0.5-4 mg/day, v=sesame oil) or s.c. TMG (0.5-2 mg/day, v=benzyl benzoate (BB) and castor oil (CO), 1:4). Delivery times were observed.
Subcutaneous treatments. All daily injections were by the subcutaneous route (s.c) in […] for the P4 treatments and benzyl benzoate (BB, 1 part): castor oil (CO, 4 parts) for the TMG group. P4 and TMG had dose ranges of 0.5 mg-4 mg per day and 0.5 mg-2 mg per day, respectively. Vehicles only are used in the control groups.
Topical treatments. Topical P4 and TMG (in fish oil and benzyl benzoate:castor oil (1:4), respectively) treatments were applied to the shaved back of the rat twice a day For topical treatments of P4 and TMG, dose range from 2 mg-30 mg per day and 0.005 to 0.5 mg per day, respectively.
Times of delivery of controls and treatment groups were determined as hours after 8 a.m. on day 22 of gestation. […] Delays in delivery less than 80 hours were calculated as less than 100% inhibition. The expulsion of a single pup was noted as delivery. Control groups spontaneously delivered on day 22 of gestation.
The Student's t test was used to compare the treatment groups with its specific control groups to determine the differences in delivery times. A 2-tailed probability value of P<0.05 was considered statistically significant.

[5] = pregnant rats, s.c. single daily treatment from day 20 of gestation

C[C@H](O)C(=O)[C@@]1(C)CC[C@H]2[C@@H]3CCC4=CC(=O)CCC4=C3CC[C@@]21C [TMG, trimegestone]
affinity to the mineralocorticoid receptor [1]: low affinity
relative binding affinity (RBA) for TMG-mineralocorticoid receptors (MR) [1]: 42
effect on MMP expression compared to P4 [2]: differential effect on MMP expression; also recorded: tighter control of MMP expression
relative binding affinity (RBA) for TMG-PR interactions [3]: 588
affinity for progesterone receptor (PR), higher than P4 ([3]; relative to P4): 6 fold
potency, higher than P4 ([3]; relative to P4): approximately 6 times
affinity for the human progesterone receptor, greater than progesterone (P4) ([3]; relative to P4, human progesterone receptor): 6 times
dose for complete block of delivery (80 hour delay, 100 percent inhibition), subcutaneous [4, 5]: 0.5 mg
dose for complete block of delivery, subcutaneous [4, 5]: 0.5 mg/day
lower dose for complete block of term delivery compared to P4, subcutaneous ([4]; pregnant rats, s.c., 0.5 mg TMG vs. 2 mg P4, P<0.05): ca. 4 ×
dose for complete block of delivery, topical ([4]; pregnant rats, topical twice a day from day 20 of gestation): 0.1 mg/day
lower dose for complete block of term delivery compared to P4, topically ([4]; pregnant rats, topical, 0.5 mg TMG vs. 15 mg P4, P<0.05): ca. 30 ×
potency in delaying delivery in rats compared to P4 ([4]; topical and parenteral administration): more potent than P4
